Where only a bound is given, the exact number is not on record here.

As a reminder, the pEC50 is the negative decadic logarithm of the EC50, by convention in mol/L. The term EC50 denotes the concentration needed to bring the measured effect to its halfway point.

The target of this assay is T1, mAChR M4 (UniProt P08173).
T1 construct: hM1 and hM4 cDNAs were purchased from Missouri S&T cDNA Resource
T1 sequence (P08173 1-479): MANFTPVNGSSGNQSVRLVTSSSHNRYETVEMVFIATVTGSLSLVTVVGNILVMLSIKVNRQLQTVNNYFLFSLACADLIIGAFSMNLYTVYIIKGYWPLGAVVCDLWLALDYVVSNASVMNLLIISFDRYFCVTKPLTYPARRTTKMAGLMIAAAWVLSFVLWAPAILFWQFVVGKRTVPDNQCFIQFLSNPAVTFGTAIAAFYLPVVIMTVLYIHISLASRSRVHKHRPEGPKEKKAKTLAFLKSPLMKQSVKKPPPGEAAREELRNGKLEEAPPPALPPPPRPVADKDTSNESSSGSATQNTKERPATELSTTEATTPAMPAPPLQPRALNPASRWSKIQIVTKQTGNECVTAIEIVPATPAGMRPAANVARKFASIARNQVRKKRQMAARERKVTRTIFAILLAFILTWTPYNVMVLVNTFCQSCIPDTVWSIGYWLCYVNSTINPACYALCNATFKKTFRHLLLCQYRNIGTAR
Description: mAChR M4 cell-based functional assay (calcium mobilization, Fluo-4, FDSS). The settings on record: for pEC50: positive allosteric modulator activity, EC20 acetylcholine response; for pEC50 / EC50: CHO-K1 cells; for EC50: positive allosteric modulator activity: concentration-dependent increase in the EC20 acetylcholine response, >10 μM estimated for low potency (no plateau); for Emax (%)*: % ACh maximum at 30 μM. The procedure, abridged:
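CHO-K1 cells stably expressing hM4 or rM4 with chimeric Gqi5, loaded with Fluo-4 AM for 50 min at 37° C. Calcium read on FDSS 6000 over 300 s: compound added at 4 s, acetylcholine EC20 at 144 s and EC80 at 230 s. Agonist, PAM (EC20 increase) and antagonist (EC80 decrease) values fitted by four-parameter logistic.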

Regarding `Cc1nc2sc3c(NCC4CCCCC4)n[nH]c3c2c(C)c1Cl` [Compound 142, 7-chloro-N-(cyclohexylmethyl)-6,8-dimethyl-1H-pyrazolo[3′,4′:4,5]thieno[2,3-b]pyridin-3-amine], the pEC50 is listed as less than 5.00 and the 50% effective concentration (EC50) is more than 10000 nM.

On to `Cc1ccc(CNc2nn(C)c3c2sc2nc(C)cc(C)c23)c(C)c1` [Compound 59, N-(2,4-dimethylbenzyl)-1,6,8-trimethyl-1H-pyrazolo[3′,4′:4,5]thieno[2,3-b]pyridin-3-amine], for which the “Emax (%)*” value is 57%, the negative-log EC50 (pEC50) was determined as 5.60 and the concentration for a half-maximal effect (EC50) is 2500 nM.

Take `Cc1cc(C)c2c(n1)sc1c(NCc3cccs3)n[nH]c12` [Compound 36, 6,8-dimethyl-N-(thiophen-2-ylmethyl)-1H-pyrazolo[3′,4′:4,5]thieno[2,3-b]pyridin-3-amine]: the “Emax (%)*” value turned out to be 78%, the pEC50 worked out at 6.20 and the EC50 was 630 nM.

For `Cc1cc(C)c2c(n1)sc1c(NC(=O)C3CC3)n[nH]c12` [Compound 2, N-(6,8-dimethyl-1H-pyrazolo[3′,4′:4,5]thieno[2,3-b]pyridin-3-yl)cyclopropanecarboxamide], the “Emax (%)*” value came to 36%, the pEC50 came out at 5.42 and the concentration giving a half-maximal response (EC50) is 3840 nM.

Regarding `Cc1cc(C)c2c(n1)sc1c(NCc3ccsc3)nn(C)c12` [Compound 80, 1,6,8-trimethyl-N-(thiophen-3-ylmethyl)-1H-pyrazolo[3′,4′:4,5]thieno[2,3-b]pyridin-3-amine], the “Emax (%)*” value was 71%, the negative logarithm of the EC50 (pEC50) is on record as 7.21 and the EC50 was 62 nM.

In the case of `Cc1ccc2c(n1)sc1c(NC(=O)c3ccccc3)nn(C)c12` [Compound 157, N-(1,6-dimethyl-1H-pyrazolo[3′,4′:4,5]thieno[2,3-b]pyridin-3-yl)benzamide], the negative-log EC50 (pEC50) was less than 5.00 and the EC50 is more than 10000 nM.

Take `Cc1cc(C)c2c(n1)sc1c(NCc3scnc3C)nn(CCO)c12` [Compound 110, 2-(6,8-dimethyl-3-(((4-methylthiazol-5-yl)methyl)amino)-1H-pyrazolo[3′,4′:4,5]thieno[2,3-b]pyridin-1-yl)ethanol]: the “Emax (%)*” value is reported as 72%, the negative logarithm of the EC50 (pEC50) is 7.08 and the EC50 is 84 nM.

With `Cc1cc(C)c2c(n1)sc1c(NC3CCSCC3)n[nH]c12` [Compound 12, 6,8-dimethyl-N-(tetrahydro-2H-thiopyran-4-yl)-1H-pyrazolo[3′,4′:4,5]thieno[2,3-b]pyridin-3-amine], the “Emax (%)*” value was 38%, the pEC50 stood at 5.36 and the half-maximal effective concentration (EC50) is 4390 nM.

As to `Cc1nc2sc3c(NCc4ccc(F)cc4)nn(C)c3c2c(C)c1Cl` [Compound 22, 7-chloro-N-(4-fluorobenzyl)-1,6,8-trimethyl-1H-pyrazolo[3′,4′:4,5]thieno[2,3-b]pyridin-3-amine], the “Emax (%)*” value worked out at 57%, the pEC50 is less than 5.00 and the EC50 was more than 10000 nM.

As to `COc1ccc(CNc2nn(C)c3c2sc2nc(C)cc(C)c23)cc1` [Compound 38, N-(4-methoxybenzyl)-1,6,8-trimethyl-1H-pyrazolo[3′,4′:4,5]thieno[2,3-b]pyridin-3-amine], the “Emax (%)*” value is recorded as 72%, the negative-log EC50 (pEC50) is reported as 6.66 and the EC50 was 220 nM.

Take `CCOC(=O)CNc1n[nH]c2c1sc1nc(C)cc(C)c12` [Compound 111, ethyl 2-((6,8-dimethyl-1H-pyrazolo[3′,4′:4,5]thieno[2,3-b]pyridin-3-yl)amino)acetate]: the “Emax (%)*” value amounted to 50%, the negative logarithm of the EC50 (pEC50) is on record as less than 5.00 and the EC50 is more than 10000 nM.

Take `Cc1cc(C)c2c(n1)sc1c(NCc3ccc(S(C)(=O)=O)c(F)c3)nn(C)c12` [Compound 94, N-(3-fluoro-4-(methylsulfonyl)benzyl)-1,6,8-trimethyl-1H-pyrazolo[3′,4′:4,5]thieno[2,3-b]pyridin-3-amine]: the “Emax (%)*” value worked out at 74%, the pEC50 came out at 7.09 and the EC50 is 81 nM.

For the compound `CC(=O)Nc1n[nH]c2c1sc1nc(C)cc(C)c12` [Compound 126, N-(6,8-dimethyl-1H-pyrazolo[3′,4′:4,5]thieno[2,3-b]pyridin-3-yl)acetamide], the negative logarithm of the EC50 (pEC50) is listed as less than 5.00 and the EC50 was more than 10000 nM.

Take `COc1ccc(Cn2nc(N)c3sc4nc(C)c(Cl)c(C)c4c32)cc1` [Compound 161, 7-chloro-1-(4-methoxybenzyl)-6,8-dimethyl-1H-pyrazolo[3′,4′:4,5]thieno[2,3-b]pyridin-3-amine]: the pEC50 is less than 5.00 and the EC50 is more than 10000 nM.

For `Cc1cc(C)c2c(n1)sc1c(NCc3ccco3)nn(CCO)c12` [Compound 95, 2-(3-((furan-2-ylmethyl)amino)-6,8-dimethyl-1H-pyrazolo[3′,4′:4,5]thieno[2,3-b]pyridin-1-yl)ethanol], the “Emax (%)*” value stood at 67%, the pEC50 amounted to 6.92 and the EC50 was 120 nM.

With `Cc1ccnc2sc3c(NCC4CC4)nn(C)c3c12` [Compound 160, N-(cyclopropylmethyl)-1,8-dimethyl-1H-pyrazolo[3′,4′:4,5]thieno[2,3-b]pyridin-3-amine], the negative-log EC50 (pEC50) is less than 5.00 and the EC50 is more than 10000 nM.

For `Cc1cc(C)c2c(n1)sc1c(NCc3ccc(F)cc3)n[nH]c12` [Compound 4, N-(4-fluorobenzyl)-6,8-dimethyl-1H-pyrazolo[3′,4′:4,5]thieno[2,3-b]pyridin-3-amine], the “Emax (%)*” value was 54%, the negative-log EC50 (pEC50) was 5.99 and the half-maximal effective concentration (EC50) was 1030 nM.

As to `Cc1ccc2c(n1)sc1c(NC(=O)c3ccc(Br)cc3)nn(C)c12` [Compound 158, 4-bromo-N-(1,6-dimethyl-1H-pyrazolo[3′,4′:4,5]thieno[2,3-b]pyridin-3-yl)benzamide], the pEC50 is less than 5.00 and the EC50 is more than 10000 nM.

For `Cc1cc(C)c2c(n1)sc1c(NC3CCCNC3)n[nH]c12` (stereo not shown) [Compound 136, 6,8-dimethyl-N-(piperidin-3-yl)-1H-pyrazolo[3′,4′:4,5]thieno[2,3-b]pyridin-3-amine], the negative logarithm of the EC50 (pEC50) is less than 5.00 and the EC50 was more than 10000 nM.

For the compound `Cc1cc(C)c2c(n1)sc1c(NC(=O)c3ccccc3)n[nH]c12` [Compound 130, N-(6,8-dimethyl-1H-pyrazolo[3′,4′:4,5]thieno[2,3-b]pyridin-3-yl)benzamide], the pEC50 is reported as less than 5.00 and the half-maximal effective concentration (EC50) was more than 10000 nM.

Take `Cc1cc(C)c2c(n1)sc1c(NC3CCCC3)nn(CCO)c12` [Compound 107, 2-(3-(cyclopentylamino)-6,8-dimethyl-1H-pyrazolo[3′,4′:4,5]thieno[2,3-b]pyridin-1-yl)ethanol]: the “Emax (%)*” value stood at 65%, the pEC50 is recorded as 6.70 and the EC50 is 200 nM.

As to `Cc1cc(C)c2c(n1)sc1c(NCC(C)(C)C)nn(C)c12` [Compound 104, 1,6,8-trimethyl-N-neopentyl-1H-pyrazolo[3′,4′:4,5]thieno[2,3-b]pyridin-3-amine], the “Emax (%)*” value came to 61%, the pEC50 came out at 6.00 and the EC50 was 1000 nM.

Regarding `CCCn1nc(NCc2ccc(S(C)(=O)=O)cc2)c2sc3nc(C)cc(C)c3c21` [Compound 120, 6,8-dimethyl-N-(4-(methylsulfonyl)benzyl)-1-propyl-1H-pyrazolo[3′,4′:4,5]thieno[2,3-b]pyridin-3-amine], the “Emax (%)*” value came to 59%, the negative logarithm of the EC50 (pEC50) was less than 5.00 and the EC50 is more than 10000 nM.

For the compound `Cc1cc(C)c2c(n1)sc1c(NCc3cccs3)nn(CCO)c12` [Compound 101, 2-(6,8-dimethyl-3-((thiophen-2-ylmethyl)amino)-1H-pyrazolo[3′,4′:4,5]thieno[2,3-b]pyridin-1-yl)ethanol], the “Emax (%)*” value was 73%, the negative-log EC50 (pEC50) came out at 7.31 and the concentration for a half-maximal effect (EC50) was 49 nM.

In the case of `Cc1cc(C)c2c(n1)sc1c(NCc3[nH]cnc3C)nn(C)c12` [Compound 92, 1,6,8-trimethyl-N-((4-methyl-1H-imidazol-5-yl)methyl)-1H-pyrazolo[3′,4′:4,5]thieno[2,3-b]pyridin-3-amine], the “Emax (%)*” value came out at 50%, the pEC50 is 6.37 and the EC50 is 430 nM.

As for `Cc1cc(C)c2c(n1)sc1c(NC3CCOCC3)n[nH]c12` [Compound 13, 6,8-dimethyl-N-(tetrahydro-2H-pyran-4-yl)-1H-pyrazolo[3′,4′:4,5]thieno[2,3-b]pyridin-3-amine], the “Emax (%)*” value stood at 37%, the pEC50 was 5.14 and the EC50 was 7320 nM.

With `Cc1cc(C)c2c(n1)sc1c(NCc3ccoc3)nn(C)c12` [Compound 81, N-(furan-3-ylmethyl)-1,6,8-trimethyl-1H-pyrazolo[3′,4′:4,5]thieno[2,3-b]pyridin-3-amine], the “Emax (%)*” value was determined as 77%, the negative-log EC50 (pEC50) came out at 7.16 and the EC50 is 69 nM.

Values taken from patent US9056876B2, “Substituted 1H-pyrazolo[3′,4′,4,5]thieno[2,3-b]pyridin-3-amine analogs as positive allosteric modulators of the muscarinic acetylcholine receptor M4” (VANDERBILT UNIVERSITY, priority 2011, dated 2015).
